Test results reported in patent US8197860B2, “Method for enhancing nutrient absorption with astragalosides” (Nuliv Holding Inc., priority 2005, dated 2012).

Experiments:
Assay type in all cases: cell-based, human
Caco2 cells [1] = assay: Glucose uptake assay; design: key to * (regulatory effect on glucose uptake): ↑: the arrows that point up represent the enhancing effect on the glucose uptake; details: for Uptake rate (glucose): 48 hours, 25 mM glucose
Method: To evaluate the effect of the isolated astragaloside compound on the uptake of nutrient substances across the intestinal lumen, Caco-2 cells were grown on permeable filter as an experimental model. Caco2 cells originate from human colonic adenocarcinoma and spontaneously differentiate into an enterocyte-like phenotype after two weeks. The Caco-2 cell line, derived from a human colorectal carcinoma, has been used as an in vitro model system for studying drug absorption in gastrointestinal tract. These cells form monolayers with well-developed tight-junctions, and have been evaluated in details as an in vitro model to study both transcellular transport of nutrients and drugs in intestinal lumen.
Caco-2 cells were obtained from the ATCC (American Type Culture Collection). The cells were maintained in Dulbecco's modified Eagle medium (DMEM) containing 4.5 g/L glucose and 25 mM Hepes, supplemented with 10% fetal calf serum, 100 U/mL penicillin G and […]. The medium was changed every second day. The cells were routinely checked for Mycoplasma in monthly intervals. Caco-2 cells were cultured on semi-permeable membranes to differentiate into a highly functionalized epithelial barrier with remarkable morphological and biochemical similarity to the small intestinal columnar epithelium. The Caco-2 cell monolayers could therefore be used to study the membrane transport properties of many compounds. To trypsinize the cells, the culture dish was washed once with phosphate-buffered saline (PBS) followed by adding trypsine-EDTA for 10 minutes. The trypsinized cells were separated and filtered into single cells using a 35-μm strainer cap (Falcon 2235) before being seeded for further experiments.
Caco-2 cells (5×10^4) were seeded in a 48-well plate and maintained in culture medium (DMEM with 10% FBS, 1% nonessential amino acids, L-glutamine, penicillin G (100 U/mL), streptomycin (10 μg/mL), and amphotericin B (2.5 μg/mL) in a 37° C. incubator for 10 days for the cells to differentiate. The culture medium was changed once every two days. The cells were then washed with PBS before replenishing with the culture medium containing 5% FBS and various astragalosides at the indicated concentrations (0.01, 0.1 and 1 μM) for 48 hours. The Caco2 cells were washed out of remaining glucose with PBS and replaced in the glucose buffer (80 mM NaCl, 100 mM mannitol, 20 mM Tris-HCl, pH 7.4, 3 mM K2HPO4, 1 mM CaCl2, 1 mg/mL BSA) for 1 hour. Glucose uptake was initiated by replacing the glucose buffer with 0.2 ml of glucose buffer containing 2 μCi/mL of ^14C-glucose and unlabeled cold glucose to give a final glucose concentration of 25 mM. Glucose uptake was stopped by removing the glucose buffer and washing with PBS at designated time intervals. The cells were lysed in 0.2 mL of 0.2 N NaOH, and 20 μL of the cell lysate were transferred to the filter-bottomed UniFilter plates (Perkin-Elmer, Wellesley, Mass., USA) and dried in a vacuum oven at 37° C. The bottom of the UniFilter plate was sealed and 25 μL of the counting solution were added into each well. Adhesive plate sealers were used in place of the lids and radioactivity of each sample was counted using the microplate liquid scintillation counter (TopCount, Packard NXT, Packard BioScience Company, Meriden, Conn., USA). The amount of glucose accumulated in the cells was calculated and normalized to protein concentration, and uptake rate was expressed as nanomoles of glucose per minutes per milligram of cell protein (nmol/min/mg). Protein concentration was determined by a standard Bicinchoninic acid (BCA) protein assay. Nonspecific glucose uptake was measured by adding 2 μCi of L-[^14C]-glucose and subtracting from each determination to obtain specific glucose uptake.

Caco-2 cell monolayer [2] = assay: Arginine absorption assay (transport across Caco-2 cell monolayer); design: key to * (regulatory effect on arginine transport): ↑: the arrows that point up represent the enhancing effect on the arginine transport; details: for Transport rate (arginine): 10 mM L-arginine apical
Outline: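 Differentiated Caco-2 monolayers on transwells, preincubated 1 h at 37° C in pH 7.4 Hepes-buffered saline with glucose. Apical 10 mM L-arginine spiked with L-[3H]-arginine; basolateral radioactivity sampled over time. Transport corrected by [3H]-mannitol, expressed as nmol/min.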

Caco-2 cell monolayer [3] = assay: Tryptophan absorption assay (transport across Caco-2 cell monolayer); design: key to * (regulatory effect on tryptophan transport): ↑: the arrows that point up represent the enhancing effect on the tryptophan transport
Outline: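 Differentiated Caco-2 monolayers on transwell filters were preincubated for 1 h at 37 °C in choline chloride-based buffer at pH 7.4. Transport began when apical tryptophan was added. Basolateral samples taken over time were counted, corrected for nonspecific flux using [3H]-mannitol, and expressed as nmol/min.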

Caco2 cells [4] = assay: Folate uptake assay; design: key to * (regulatory effect on folate uptake): ↑: the arrows that point up represent the enhancing effect on folate uptake; details: compound 0.1 μM
Outline: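 Caco-2 cells differentiated 10 days, then pretreated 2 days with 0.1 μM isolated astragalosides in 5% FBS medium. Preincubated 1 h in HBSS-based folate uptake buffer pH 6.0; uptake started with 2 μCi/mL ³H-folic acid plus unlabeled folate.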

Q: For CC(=O)O[C@@H]1[C@@H](O)[C@H](O[C@H]2CC[C@]34C[C@]35CC[C@]3(C)[C@@H]([C@@]6(C)CC[C@@H](C(C)(C)O)O6)[C@@H](O)C[C@@]3(C)[C@@H]5C[C@H](O[C@@H]3O[C@H](CO)[C@@H](O)[C@H](O)[C@H]3O)[C@H]4C2(C)C)OC[C@H]1O [IsoAS2, isoastragaloside II], which “Regulatory effects on the glucose uptake of the Caco2 cells” value (Caco2 cells [1]; Table 2 summary) is on record?
A: Its value is “had regulatory effects on the glucose uptake”.

Q: And the “* (regulatory effect on glucose uptake)” value (Caco2 cells [1]; compound 0.01 μM)?
A: The value was “↑”.

Q: And the “Percentage (glucose uptake, control = 100)” value (Caco2 cells [1]; compound 0.01 μM)?
A: Its value is 115.69%.

Q: And the “Uptake rate (glucose)” value (Caco2 cells [1]; compound 0.01 μM)?
A: The value was 7.3720 ± 2.5700 nmol/mg/min.

Q: And the “* (regulatory effect on glucose uptake)” value (Caco2 cells [1]; compound 0.1 μM)?
A: The value was “↑”.

Q: What about the “Percentage (glucose uptake, control = 100)” value (Caco2 cells [1]; compound 0.1 μM) of the same compound?
A: The value was 107.05%.

Q: What about the “Uptake rate (glucose)” value (Caco2 cells [1]; compound 0.1 μM) of the same compound?
A: Its value is 6.8210 ± 1.6630 nmol/mg/min.

Q: And the “Percentage (glucose uptake, control = 100)” value (Caco2 cells [1]; compound 1 μM)?
A: Its value is 96.55%.

Q: And the “Uptake rate (glucose)” value (Caco2 cells [1]; compound 1 μM)?
A: Its value is 6.1520 ± 2.4610 nmol/mg/min.

Q: And the “Regulatory effects on the arginine transport across the Caco2 cell monolayer” value (Caco-2 cell monolayer [2]; Table 3 summary)?
A: Its value is “had regulatory effects on the arginine transport”.

Q: What about the “* (regulatory effect on arginine transport)” value (Caco-2 cell monolayer [2]; compound 0.01 μM) of the same compound?
A: The value was “↑”.

Q: And the “Percentage (arginine transport, control = 100)” value (Caco-2 cell monolayer [2]; compound 0.01 μM)?
A: The value was 138.11%.

Q: And the “Transport rate (arginine)” value (Caco-2 cell monolayer [2]; compound 0.01 μM)?
A: Its value is 14.7577 ± 0.2837 nmol/min.

Q: And the “* (regulatory effect on arginine transport)” value (Caco-2 cell monolayer [2]; compound 0.1 μM)?
A: The value was “↑”.

Q: What about the “Percentage (arginine transport, control = 100)” value (Caco-2 cell monolayer [2]; compound 0.1 μM) of the same compound?
A: Its value is 132.01%.

Q: And the “Transport rate (arginine)” value (Caco-2 cell monolayer [2]; compound 0.1 μM)?
A: The value was 14.1059 ± 0.1815 nmol/min.

Q: What about the “* (regulatory effect on arginine transport)” value (Caco-2 cell monolayer [2]; compound 1 μM) of the same compound?
A: Its value is “↑”.

Q: What about the “Percentage (arginine transport, control = 100)” value (Caco-2 cell monolayer [2]; compound 1 μM) of the same compound?
A: The value was 118.40%.

Q: And the “Transport rate (arginine)” value (Caco-2 cell monolayer [2]; compound 1 μM)?
A: Its value is 12.6518 ± 0.3680 nmol/min.

Q: What about the Arginine transport rate (Caco-2 cell monolayer [2]; concentration from 0.01 μM to 1 μM) of the same compound?
A: Its Arginine transport rate is “increased”.

Q: What about the “Regulatory effects on the tryptophan transport across the Caco2 cell monolayer” value (Caco-2 cell monolayer [3]; Table 4 summary) of the same compound?
A: Its value is “had regulatory effects on the tryptophan transport”.

Q: What about the “* (regulatory effect on tryptophan transport)” value (Caco-2 cell monolayer [3]; compound 0.01 μM) of the same compound?
A: Its value is “↑”.

Q: What about the “Percentage (tryptophan transport, control = 100)” value (Caco-2 cell monolayer [3]; compound 0.01 μM) of the same compound?
A: The value was 145.38%.

Q: What about the “Transport rate (tryptophan)” value (Caco-2 cell monolayer [3]; compound 0.01 μM) of the same compound?
A: Its value is 13.000 ± 0.5547 nmol/min.

Q: And the “* (regulatory effect on tryptophan transport)” value (Caco-2 cell monolayer [3]; compound 0.1 μM)?
A: The value was “↑”.

Q: And the “Percentage (tryptophan transport, control = 100)” value (Caco-2 cell monolayer [3]; compound 0.1 μM)?
A: Its value is 146.05%.

Q: What about the “Transport rate (tryptophan)” value (Caco-2 cell monolayer [3]; compound 0.1 μM) of the same compound?
A: The value was 13.060 ± 0.5530 nmol/min.

Q: What about the “* (regulatory effect on tryptophan transport)” value (Caco-2 cell monolayer [3]; compound 1 μM) of the same compound?
A: Its value is “↑”.

Q: What about the “Percentage (tryptophan transport, control = 100)” value (Caco-2 cell monolayer [3]; compound 1 μM) of the same compound?
A: Its value is 224.45%.

Q: And the “Transport rate (tryptophan)” value (Caco-2 cell monolayer [3]; compound 1 μM)?
A: The value was 20.070 ± 0.1931 nmol/min.

Q: And the Tryptophan transport rate (Caco-2 cell monolayer [3]; concentration from 0.01 μM to 1 mM)?
A: Its Tryptophan transport rate is “increased”.

Q: And the “* (regulatory effect on folate uptake)” value (Caco2 cells [4])?
A: Its value is “↑”.

Q: And the “Percentage (folate uptake vs own control)” value (Caco2 cells [4])?
A: Its value is 162.87%.

Q: And the “Uptake rate (folate)” value (Caco2 cells [4]; 2 days, 5 μM folate, pH 6.0)?
A: The value was 86.63 ± 2.82 pmol/mg/min.
